In ChEMBL document CHEMBL1255321, “Prevalence of the erm(T) gene in clinical isolates of erythromycin-resistant group D Streptococcus and Enterococcus” (2008) one finds Activity and MIC data, which are given here for 2 molecules.

Molecules are shown by their SMILES. Values after ≈ are worked out from the molar mass of the structure shown. Active and inactive are the calls of the source. The calls are words filed in the database; no cut-off is given here.

Experiment [1] relates to Streptococcus sp. Put plainly: Antimicrobial activity against Group D Streptococcus sp. clinical isolates assessed as resistant isolates. The class given is functional.
Experiment [2] has as its system Streptococcus sp. Put plainly: Antimicrobial activity against Group D Streptococcus sp. clinical isolates expressing erm(T) gene by Etest. The class given is functional.
The test system of experiment [3] is Streptococcus sp. Put plainly: Antimicrobial activity against erythromycin-resistant Group D Streptococcus sp. clinical isolates expressing erm(T) gene by Etest. The class given is functional.
Experiment [4] relates to Enterococcus faecalis. Put plainly: Antimicrobial activity against Group D Enterococcus faecalis clinical isolate expressing erm(B) gene by disk diffusion method. The class given is functional, organism-based. On the technique in general: Agar diffusion results depend on both activity and mobility in agar.
The test system of experiment [5] is Enterococcus faecium. Put plainly: Antimicrobial activity against Group D Enterococcus faecium clinical isolate expressing erm(B) gene by disk diffusion method. The class given is functional, organism-based.
The test system of experiment [6] is Enterococcus faecium. Put plainly: Antimicrobial activity against Group D Enterococcus faecium clinical isolate expressing erm(B) and erm(T) genes by disk diffusion method. The class given is functional, organism-based.

The term MIC denotes the lowest concentration found to suppress growth. Read a low MIC as inhibition by little substance. On to `CCC[C@@H]1C[C@@H](C(=O)N[C@@H]([C@H]2O[C@H](SC)[C@H](O)[C@@H](O)[C@H]2O)[C@H](C)Cl)N(C)C1` [CLINDAMYCIN], for which the Activity in experiment [1] is listed as 33%. This molecule gave a minimal inhibitory concentration (MIC) in experiment [2] of 0.125 µg/mL (≈ 0.294 µM).
For `CC[C@H]1OC(=O)[C@H](C)[C@@H](O[C@H]2C[C@@](C)(OC)[C@@H](O)[C@H](C)O2)[C@H](C)[C@@H](O[C@@H]2O[C@H](C)C[C@H](N(C)C)[C@H]2O)[C@](C)(O)C[C@@H](C)C(=O)[C@H](C)[C@@H](O)[C@]1(C)O` [ERYTHROMYCIN], the minimal inhibitory concentration (MIC) in experiment [3] is at least 256 µg/mL; in experiment [2], 0.064 µg/mL (≈ 0.0872 µM). In addition, in experiment [1], the Activity came out at 54%. Besides, the outcome in experiment [4], in experiment [5] and in experiment [6] was inactive.
